Test results taken from ChEMBL document CHEMBL1201862, “PubChem BioAssay data set” (2004).
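Step 1: Grow cells in 96-well plates. Step 2: Expose to compound for 48 hours at 5 concentrations. Step 3: Interpolate endpoints linearly; if unreached, use highest concentration. GI50 marks 50% less growth.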 Calls of active or inactive are those of the source. No stated cut-off is given here; in the data, active = GI50 up to about 1.1 µM and inactive = higher.

What was measured:
Experiment in all cases: growth of human tumour cells (NCI), 48 h
LOX IMVI = test system: LOX IMVI
HOP-92 = test system: HOP-92
A549 = test system: A549
UACC-257 = test system: UACC-257
DLD-1 = test system: DLD-1
OVCAR-4 = test system: OVCAR-4
DMS-273 = test system: DMS-273
SK-MEL-5 = test system: SK-MEL-5
786-0 = test system: 786-0
NCI-H226 = test system: NCI-H226
KM-20L2 = test system: KM-20L2
SF-268 = test system: SF-268
UACC-62 = test system: UACC-62
MDA-MB-435 = test system: MDA-MB-435
ACHN = test system: ACHN
RPMI-8226 = test system: RPMI-8226
CAKI-1 = test system: CAKI-1
DMS-114 = test system: DMS-114
NCI-H522 = test system: NCI-H522
MOLT-4 = test system: MOLT-4
EKVX = test system: EKVX
SK-OV-3 = test system: SK-OV-3
HCT-116 = test system: HCT-116
SF-539 = test system: SF-539
KM12 = test system: KM12
RXF 631 = test system: RXF 631
RXF 393 = test system: RXF 393
HCT-15 = test system: HCT-15
Malme-3M = test system: Malme-3M
HCC 2998 = test system: HCC 2998
MDA-MB-231 = test system: MDA-MB-231
CCRF-CEM = test system: CCRF-CEM
Hs-578T = test system: Hs-578T
NCI/ADR-RES = test system: NCI/ADR-RES
T47D = test system: T47D
NCI-H23 = test system: NCI-H23
HT-29 = test system: HT-29
DU-145 = test system: DU-145
IGROV-1 = test system: IGROV-1
OVCAR-8 = test system: OVCAR-8
OVCAR-5 = test system: OVCAR-5
K562 = test system: K562
COLO 205 = test system: COLO 205
SNB-78 = test system: SNB-78
HOP-18 = test system: HOP-18
PC-3 = test system: PC-3
OVCAR-3 = test system: OVCAR-3
BT-549 = test system: BT-549
MCF7 = test system: MCF7
M19-MEL = test system: M19-MEL
SK-MEL-28 = test system: SK-MEL-28
SF-295 = test system: SF-295
U-251 = test system: U-251
HL-60 = test system: HL-60
M14 = test system: M14
SW-620 = test system: SW-620
SNB-19 = test system: SNB-19
NCI-H460 = test system: NCI-H460
SNB-75 = test system: SNB-75
SK-MEL-2 = test system: SK-MEL-2
HOP-62 = test system: HOP-62
TK-10 = test system: TK-10

Measured: GI50

COC1=C(C)C(=O)C2=C(C1=O)C1C3CC4=C(C(=O)C(OC)=C(C)C4=O)C(CNC(=O)C(C)=O)N3C(C#N)C(C2)N1C (configuration not stated)
active: LOX IMVI 1.29 nM | HOP-92 4.42 nM | A549 182 nM | UACC-257 4.64 nM | DLD-1 2.54 nM | OVCAR-4 40.5 nM | DMS-273 4.32 nM | SK-MEL-5 3.43 nM | 786-0 3.83 nM | NCI-H226 17.7 nM | KM-20L2 14.9 nM | SF-268 14 nM | UACC-62 3.53 nM | MDA-MB-435 1.6 nM | ACHN 20.9 nM | RPMI-8226 1.4 nM | CAKI-1 5.16 nM | DMS-114 1.62 nM | NCI-H522 < 1 nM | MOLT-4 8.38 nM | EKVX 104 nM | SK-OV-3 74.1 nM | HCT-116 7.11 nM | SF-539 8.91 nM | KM12 7.89 nM | RXF 631 20.6 nM | RXF 393 4.96 nM | Malme-3M 6.78 nM | HCC 2998 6.29 nM | MDA-MB-231 2.83 nM | CCRF-CEM 8.39 nM | Hs-578T < 1 nM | NCI/ADR-RES 296 nM | T47D < 1 nM | NCI-H23 3.85 nM | HT-29 3.88 nM | DU-145 5.45 nM | IGROV-1 4.24 nM | OVCAR-8 6.61 nM | OVCAR-5 17.2 nM | K562 1.53 nM | COLO 205 2.74 nM | SNB-78 6.17 nM | HOP-18 55.3 nM | PC-3 3.52 nM | OVCAR-3 4.19 nM | BT-549 < 1 nM | MCF7 10 nM | M19-MEL 6.34 nM | SK-MEL-28 5.11 nM | SF-295 20.2 nM | U-251 8.11 nM | HL-60 3.28 nM | M14 4.17 nM | SW-620 2.46 nM | SNB-19 8.04 nM | NCI-H460 10.1 nM | SNB-75 5.19 nM | SK-MEL-2 2.26 nM | HOP-62 21.5 nM | TK-10 32.8 nM
6.03 nM: HCT-15
